Reference: paper PMC6503114, “Application of Antimicrobial Peptides of the Innate Immune System in Combination With Conventional Antibiotics—A Novel Way to Combat Antibiotic Resistance?” (Frontiers in Cellular and Infection Microbiology, 2019)
Read-outs that look alike come from different tables or passages of the source. Marks after values point to notes of the source that are not given here. Bridges are numbered along the chain shown (N, C = ends). Where no end group is shown, it is not given here.

What was measured:
[1] = test system: bacteria; experiment: Checkerboard titration, synergy cases with conventional antibiotics (all tested bacteria); format: cell-based; details: in vitro, human AMPs
Protocol: (§1) According to checkerboard titration template, one component (A) of the combination was diluted along the rows of the plate, while the other (B) was diluted down the columns, thereby creating the variety of mixtures with different concentrations of tested compounds. 2.5 μl of corresponding solutions of the components A and B were added into each well of the plate. Into the first column and the last row the same amount of 10 mM sodium phosphate buffer, pH 7.4, containing 0.1% of BSA was introduced instead of the second component. Thus, all wells contained 5 μl of antimicrobial compounds solutions (solo or in combination). The same volume of bacterial suspension, prepared as described for microdilution assay, was added into each well. The results were recorded after the overnight incubation, visually indicating the presence or absence of the microbial growth in the corresponding wells. Based on the obtained data the isobolograms of combined action were plotted and/or Fractional Inhibitory Concentration Indices (FICI) were calculated. […] Depending on the minimal value of the FICI the combined effect of the combination was classified as antagonism (FICI > 2), independent action (1 < FICI ≤ 2), additivity (0.5 < FICI ≤ 1) or synergy (FICI ≤ 0.5), as is recommended in the literature and due to some drawbacks of the serial dilution method (Hsieh et al., [1993]; Orhan et al., [2005]; Fehri et al., [2007]). FICIs were assessed in 3–6 independent experiments and median values were used to define the nature of interaction.

[2] = test system: MRSA ATCC 33591; experiment: microbe, parasite or virus in culture; format: cell-based, Staphylococcus aureus; details: median of 3–6 experiments, square brackets = twice the maximal tested concentration
[3] = test system: A. baumannii 7226/16; experiment: Checkerboard titration (FICI); format: cell-based, Acinetobacter baumannii
Protocol: as §1, with “The combined antimicrobial action of AMPs and other antimicrobial compounds was assessed using checkerboard titration approach under the conditions similar to that of the microdilution assay. According” for “According”

[4] = test system: S. aureus 1399/17; experiment: Checkerboard titration (FICI); format: cell-based, Staphylococcus aureus
Protocol: as §1, with “The combined antimicrobial action of AMPs and other antimicrobial compounds was assessed using checkerboard titration approach under the conditions similar to that of the microdilution assay. According” for “According”

[5] = test system: P. aeruginosa MDR 522/17; experiment: microbe, parasite or virus in culture; format: cell-based; details: Pseudomonas aeruginosa, MDR522/17; P. aeruginosa MDR 522/17, drug-resistant clinical isolate
Protocol: (§2) Prior to the “checkerboard” synergy test the minimal inhibitory concentrations (MIC) of individual substances were determined using broth microdilution assay. Testing was performed in 60-well polystyrene Terasaki microplates with V-shaped bottom generally according to the guidelines of the European Committee for Antimicrobial Susceptibility Testing with subtle modifications designed for AMP testing (Tossi et al., [1997]; Wiegand et al., [2008]). Cultivation of bacteria was carried out in 2.1% Müller-Hinton broth at 37°C with shaking. Two-fold serial dilutions of peptides, antibiotics and other antimicrobials were made with 10 mM sodium phosphate buffer, pH 7.4, containing 0.1% of BSA. The plates were preliminary incubated with 0.1% BSA for 1 h at 37°C to reduce a non-specific binding of peptides to the plates. After that BSA was removed, and serial dilutions were added into the plate wells in triplicates followed by the same volume of the suspension of bacterial cells in logarithmic phase of growth in concentration of 1 × 10^6 CFU/ml. After the 18 h overnight incubation at 37°C, the MIC value for each compound was determined as its lowest concentration completely inhibiting the visible growth of bacteria. The final results were calculated as median values based on 3–6 independent experiments.

[6] = test system: S. aureus 1399/17; experiment: microbe, parasite or virus in culture; format: cell-based; details: Staphylococcus aureus
Protocol: as §2

[7] = test system: K. pneumoniae ESBL 344/17; experiment: microbe, parasite or virus in culture; format: cell-based; details: Klebsiella pneumoniae, ESBL344/17; K. pneumoniae ESBL 344/17, drug-resistant clinical isolate
Protocol: as §2

[8] = test system: E. coli ESBL 521/17; experiment: microbe, parasite or virus in culture; format: cell-based; details: Escherichia coli, ESBL521/17; E. coli ESBL 521/17, drug-resistant clinical isolate; square brackets = twice the maximal tested concentration
Protocol: as §2

[9] = test system: A. baumannii 7226/16; experiment: microbe, parasite or virus in culture; format: cell-based; details: Acinetobacter baumannii; A. baumannii 7226/16, drug-resistant clinical isolate
Protocol: as §2

[10] = test system: E. coli ESBL 521/17; experiment: Checkerboard titration (FICI); format: cell-based, Escherichia coli
Protocol: as §1, with “The combined antimicrobial action of AMPs and other antimicrobial compounds was assessed using checkerboard titration approach under the conditions similar to that of the microdilution assay. According” for “According”

[11] = test system: P. aeruginosa MDR 522/17; experiment: Checkerboard titration (FICI); format: cell-based, Pseudomonas aeruginosa
Protocol: as §1, with “The combined antimicrobial action of AMPs and other antimicrobial compounds was assessed using checkerboard titration approach under the conditions similar to that of the microdilution assay. According” for “According”

[12] = test system: K. pneumoniae ESBL 344/17; experiment: Checkerboard titration (FICI); format: cell-based, Klebsiella pneumoniae
Protocol: as §1, with “The combined antimicrobial action of AMPs and other antimicrobial compounds was assessed using checkerboard titration approach under the conditions similar to that of the microdilution assay. According” for “According”

[13] = antibiotic in combination with ChBac3.4
[14] = antibiotic in combination with PG-1
[15] = S. aureus 1399/17, drug-resistant clinical isolate, read-out: MIC

Compound | AMP concentration in synergy cases with conventional antibiotics [1] [µM] | MIC [2] | Minimal FICI [3, 13] | Minimal FICI [3, 14] | Minimal FICI [4, 13] | Minimal FICI [4, 14] | MIC [5] [µM] | MIC [6, 15] [µM] | MIC [7] [µM] | MIC [8] [µM] | MIC [9] [µM] | Minimal FICI [10, 13] | Minimal FICI [10, 14] | Minimal FICI [11, 13] | Minimal FICI [11, 14] | Minimal FICI [12, 13] | Minimal FICI [12, 14] | MIC ([6]; 1399/17) [µM]
GIGDPVTCLKSGAICHPVFCPRRYKQIGTCGLPGTKCCKKP (disulfide 8-37, 15-30, 20-38 (inferred)) [hBD-2] | 0.2 to 1.6 | >100 [200] μM |  |  |  |  |  |  |  |  |  |  |  |  |  |  |  | 
GIINTLQKYYCRVRGGRCAVLSCLPKEEQIGKCSTRGRKCCRRKK (disulfide 11-40, 18-33, 23-41 (inferred)) [hBD-3] | 0.08 to 3.75 |  |  |  |  |  |  |  |  |  |  |  |  |  |  |  |  | 
CC[C@H]1OC(=O)[C@H](C)[C@@H](O[C@H]2C[C@@](C)(OC)[C@@H](O)[C@H](C)O2)[C@H](C)[C@@H](O[C@@H]2O[C@H](C)C[C@H](N(C)C)[C@H]2O)[C@](C)(O)C[C@@H](C)C(=O)[C@H](C)[C@@H](O)[C@]1(C)O [Erythromycin] |  |  | 0.75 | 1.12 | 0.5^* | 0.75 | > 50 | > 50 | 50 | > 50 | > 50 | 0.38^* | 0.62 | 0.38^* | 0.5^* | 0.25^* | 0.25^* | 
NCC[C@H](O)C(=O)N[C@@H]1C[C@H](N)[C@@H](O[C@H]2O[C@H](CN)[C@@H](O)[C@H](O)[C@H]2O)[C@H](O)[C@H]1O[C@H]1O[C@H](CO)[C@@H](O)[C@H](N)[C@H]1O [Amikacin] |  |  | 0.5^* | 0.38^* | 0.125^* | 1.0 | 1 | > 50 | 0.25 | 1 | 6.25 | 0.62 | 0.38 | 0.5 | 0.5 | 0.38 | 0.31 | 
C[C@@H](O)[C@H]1C(=O)N2C(C(=O)O)=C(S[C@@H]3CN[C@H](C(=O)N(C)C)C3)[C@H](C)[C@H]12 [Meropenem] |  |  | 0.5^* | 0.38^* | 0.31^* | 0.25^* | 25 |  | 0.04 | 0.04 | > 50 | 1.0 | 1.0 | 0.62 | 1.0 | 1.0 | 1.0 | 6.25
